In patent US20240158348A1, “HERBICIDAL CYCLIC AMIDES N-SUBSTITUTED WITH A HALOALKYLSULFONYLANILIDE GROUP” (FMC Corporation, priority 2021, published 2024):

Columns and labels:
Assay type in all cases: in vivo
[1] = system: blackgrass (Alopecurus myosuroides); test: Test C preemergence, blackgrass; details: 0 is no effect, 100 is complete control
From the text: (§1) Seeds of plant species selected from blackgrass (Alopecurus myosuroides), corn (Zea mays), foxtail, giant (giant foxtail, Setaria faberi), goosegrass (Eleusine indica), kochia (Bassia scoparia), oat, wild (wild oat, Avena fatua), pigweed, palmer (palmer amaranth, Amaranthus palmeri), ragweed (common ragweed, Ambrosia artemisiifolia), ryegrass, Italian (Italian ryegrass, Lolium multiflorum), soybean (Glycine max) and wheat (Triticum aestivum) were planted into a blend of loam soil and sand and treated preemergence with a directed soil spray using test chemicals formulated in a non-phytotoxic solvent mixture which included a surfactant.
(§2) At the same time, plants selected from these crop and weed species and also galium (catchweed bedstraw, Galium aparine) and horseweed (Erigeron canadensis) were planted in pots containing the same blend of loam soil and sand and treated with postemergence applications of test chemicals formulated in the same manner. Plants ranged in height from 2 to 10 cm and were in the one- to two-leaf stage for the postemergence treatment. Treated plants and untreated controls were maintained in a greenhouse for 10 or 12 days, after which time all treated plants were compared to untreated controls and visually evaluated for injury. Plant response ratings, summarized in Table A, are based on a 0 to 100 scale where 0 is no effect and 100 is complete control. A dash (-) response means no test result.

corn (Zea mays) [2] = test: Test C preemergence, corn; details: 0 is no effect, 100 is complete control
From the text: as §1, §2

[3] = system: foxtail, giant (giant foxtail, Setaria faberi); test: Test C preemergence, giant foxtail; details: 0 is no effect, 100 is complete control
From the text: as §1, §2

[4] = system: goosegrass (Eleusine indica); test: Test C preemergence, goosegrass; details: 0 is no effect, 100 is complete control
From the text: as §1, §2

kochia (Bassia scoparia) [5] = test: Test C preemergence, kochia; details: 0 is no effect, 100 is complete control
From the text: as §1, §2

[6] = system: oat, wild (wild oat, Avena fatua); test: Test C preemergence, wild oat; details: 0 is no effect, 100 is complete control
From the text: as §1, §2

[7] = system: pigweed, palmer (palmer amaranth, Amaranthus palmeri); test: Test C preemergence, palmer amaranth; details: 0 is no effect, 100 is complete control
From the text: as §1, §2

[8] = system: ragweed (common ragweed, Ambrosia artemisiifolia); test: Test C preemergence, ragweed; details: 0 is no effect, 100 is complete control
From the text: as §1, §2

[9] = system: ryegrass, Italian (Italian ryegrass, Lolium multiflorum); test: Test C preemergence, Italian ryegrass; details: 0 is no effect, 100 is complete control
From the text: as §1, §2

soybean (Glycine max) [10] = test: Test C preemergence, soybean; details: 0 is no effect, 100 is complete control
From the text: as §1, §2

[11] = system: wheat (Triticum aestivum); test: Test C preemergence, wheat; details: 0 is no effect, 100 is complete control
From the text: as §1, §2

[12] = system: blackgrass (Alopecurus myosuroides); test: Test C postemergence, blackgrass; details: visual injury, 0 to 100 scale (0 no effect, 100 complete control)
From the text: as §1, §2

corn (Zea mays) [13] = test: Test C postemergence, corn; details: visual injury, 0 to 100 scale (0 no effect, 100 complete control)
From the text: as §1, §2

[14] = system: foxtail, giant (giant foxtail, Setaria faberi); test: Test C postemergence, giant foxtail; details: visual injury, 0 to 100 scale (0 no effect, 100 complete control)
From the text: as §1, §2

[15] = system: goosegrass (Eleusine indica); test: Test C postemergence, goosegrass; details: visual injury, 0 to 100 scale (0 no effect, 100 complete control)
From the text: as §1, §2

kochia (Bassia scoparia) [16] = test: Test C postemergence, kochia; details: visual injury, 0 to 100 scale (0 no effect, 100 complete control)
From the text: as §1, §2

[17] = system: oat, wild (wild oat, Avena fatua); test: Test C postemergence, wild oat; details: visual injury, 0 to 100 scale (0 no effect, 100 complete control)
From the text: as §1, §2

[18] = system: pigweed, palmer (palmer amaranth, Amaranthus palmeri); test: Test C postemergence, palmer amaranth; details: visual injury, 0 to 100 scale (0 no effect, 100 complete control)
From the text: as §1, §2

[19] = system: ragweed (common ragweed, Ambrosia artemisiifolia); test: Test C postemergence, ragweed; details: visual injury, 0 to 100 scale (0 no effect, 100 complete control)
From the text: as §1, §2

[20] = system: ryegrass, Italian (Italian ryegrass, Lolium multiflorum); test: Test C postemergence, Italian ryegrass; details: visual injury, 0 to 100 scale (0 no effect, 100 complete control)
From the text: as §1, §2

soybean (Glycine max) [21] = test: Test C postemergence, soybean; details: visual injury, 0 to 100 scale (0 no effect, 100 complete control)
From the text: as §1, §2

[22] = system: wheat (Triticum aestivum); test: Test C postemergence, wheat; details: visual injury, 0 to 100 scale (0 no effect, 100 complete control)
From the text: as §1, §2

[23] = system: galium (catchweed bedstraw, Galium aparine); test: Test C postemergence, galium; details: visual injury, 0 to 100 scale (0 no effect, 100 complete control)
From the text: as §1, §2

[24] = system: horseweed (Erigeron canadensis); test: Test C postemergence, horseweed; details: visual injury, 0 to 100 scale (0 no effect, 100 complete control)
From the text: as §1, §2

[25] = system: barnyardgrass (Echinochloa crusgalli); test: Test D flooded paddy test, barnyardgrass; parameters: key: 0 = no effect, 100 = complete control; details: 250 g ai/ha, Flood; applied to paddy water at 2-leaf stage; visual rating after 13 days; scale 0 (no effect) to 100 (complete control)
Description: (§3) Plant species in the flooded paddy test selected from barnyardgrass (Echinochloa crusgalli), ducksalad (Heteranthera limosa), rice (Oryza sativa), and sedge, umbrella (small-flower umbrella sedge, Cyperus difformis) were grown to the 2-leaf stage for testing. At time of treatment, test pots were flooded to 3 cm above the soil surface, treated by application of test compounds directly to the paddy water, and then maintained at that water depth for the duration of the test. Treated plants and controls were maintained in a greenhouse for 13 days, after which time all species were compared to controls and visually evaluated. Plant response ratings, summarized in Table B, are based on a scale of 0 to 100 where 0 is no effect and 100 is complete control. A dash (-) response means no test result.

[26] = system: ducksalad (Heteranthera limosa); test: Test D flooded paddy test, ducksalad; parameters: key: 0 = no effect, 100 = complete control; details: 250 g ai/ha, Flood; applied to paddy water at 2-leaf stage; visual rating after 13 days; scale 0 (no effect) to 100 (complete control)
Description: as §3

rice (Oryza sativa) = test: Test D flooded paddy test, rice; parameters: key: 0 = no effect, 100 = complete control; details: 250 g ai/ha, Flood; applied to paddy water at 2-leaf stage; visual rating after 13 days; scale 0 (no effect) to 100 (complete control)
Description: as §3

[27] = system: sedge, umbrella (small-flower umbrella sedge, Cyperus difformis); test: Test D flooded paddy test, umbrella sedge; parameters: key: 0 = no effect, 100 = complete control; details: 250 g ai/ha, Flood; applied to paddy water at 2-leaf stage; visual rating after 13 days; scale 0 (no effect) to 100 (complete control)
Description: as §3

With `CC#CCOC1CCN(c2cc(NS(=O)(=O)C(F)(F)F)c(C)cc2C)C1=O` (stereo not shown) [Compound 60] as the compound, how does the “Plant response rating (0 to 100 scale), Blackgrass” value ([1]; 31 g ai/ha Preemergence) read?
Its value is 80.

What about the “Plant response rating (0 to 100 scale), Blackgrass” value ([1]; 125 g ai/ha Preemergence) of the same compound?
Its value is 90.

And the “Plant response rating (0 to 100 scale), Corn” value (corn (Zea mays) [2]; 31 g ai/ha Preemergence)?
Its value is 30.

What about the “Plant response rating (0 to 100 scale), Corn” value (corn (Zea mays) [2]; 125 g ai/ha Preemergence) of the same compound?
Its value is 100.

And the “Plant response rating (0 to 100 scale), Foxtail, Giant” value ([3]; 31 g ai/ha Preemergence)?
Its value is 100.

And the “Plant response rating (0 to 100 scale), Foxtail, Giant” value ([3]; 125 g ai/ha Preemergence)?
Its value is 100.

What about the “Plant response rating (0 to 100 scale), Goosegrass” value ([4]; 31 g ai/ha Preemergence) of the same compound?
Its value is 90.

And the “Plant response rating (0 to 100 scale), Goosegrass” value ([4]; 125 g ai/ha Preemergence)?
Its value is 100.

What about the “Plant response rating (0 to 100 scale), Kochia” value (kochia (Bassia scoparia) [5]; 31 g ai/ha Preemergence) of the same compound?
The value was 90.

And the “Plant response rating (0 to 100 scale), Kochia” value (kochia (Bassia scoparia) [5]; 125 g ai/ha Preemergence)?
The value was 100.

What about the “Plant response rating (0 to 100 scale), Oat, Wild” value ([6]; 31 g ai/ha Preemergence) of the same compound?
The value was 90.

What about the “Plant response rating (0 to 100 scale), Oat, Wild” value ([6]; 125 g ai/ha Preemergence) of the same compound?
Its value is 100.

And the “Plant response rating (0 to 100 scale), Pigweed, Palmer” value ([7]; 31 g ai/ha Preemergence)?
The value was 100.

What about the “Plant response rating (0 to 100 scale), Pigweed, Palmer” value ([7]; 125 g ai/ha Preemergence) of the same compound?
The value was 100.

And the “Plant response rating (0 to 100 scale), Ragweed” value ([8]; 31 g ai/ha Preemergence)?
The value was 90.

What about the “Plant response rating (0 to 100 scale), Ragweed” value ([8]; 125 g ai/ha Preemergence) of the same compound?
The value was 100.

And the “Plant response rating (0 to 100 scale), Ryegrass, Italian” value ([9]; 31 g ai/ha Preemergence)?
Its value is 70.

What about the “Plant response rating (0 to 100 scale), Ryegrass, Italian” value ([9]; 125 g ai/ha Preemergence) of the same compound?
Its value is 100.

And the “Plant response rating (0 to 100 scale), Soybean” value (soybean (Glycine max) [10]; 31 g ai/ha Preemergence)?
Its value is 50.

And the “Plant response rating (0 to 100 scale), Soybean” value (soybean (Glycine max) [10]; 125 g ai/ha Preemergence)?
The value was 90.

And the “Plant response rating (0 to 100 scale), Wheat” value ([11]; 31 g ai/ha Preemergence)?
The value was 40.

What about the “Plant response rating (0 to 100 scale), Wheat” value ([11]; 125 g ai/ha Preemergence) of the same compound?
Its value is 100.

And the “Blackgrass plant response rating” value ([12]; 31 g ai/ha Postemergence)?
Its value is 50.

What about the “Blackgrass plant response rating” value ([12]; 125 g ai/ha Postemergence) of the same compound?
The value was 90.

What about the “Corn plant response rating” value (corn (Zea mays) [13]; 31 g ai/ha Postemergence) of the same compound?
The value was 90.

What about the “Corn plant response rating” value (corn (Zea mays) [13]; 125 g ai/ha Postemergence) of the same compound?
Its value is 100.

What about the “Foxtail, Giant plant response rating” value ([14]; 31 g ai/ha Postemergence) of the same compound?
Its value is 80.

And the “Foxtail, Giant plant response rating” value ([14]; 125 g ai/ha Postemergence)?
Its value is 90.

And the “Goosegrass plant response rating” value ([15]; 31 g ai/ha Postemergence)?
Its value is 80.

And the “Goosegrass plant response rating” value ([15]; 125 g ai/ha Postemergence)?
Its value is 90.

And the “Kochia plant response rating” value (kochia (Bassia scoparia) [16]; 31 g ai/ha Postemergence)?
The value was 100.

What about the “Kochia plant response rating” value (kochia (Bassia scoparia) [16]; 125 g ai/ha Postemergence) of the same compound?
The value was 90.

What about the “Oat, Wild plant response rating” value ([17]; 31 g ai/ha Postemergence) of the same compound?
Its value is 30.

And the “Oat, Wild plant response rating” value ([17]; 125 g ai/ha Postemergence)?
Its value is 90.

And the “Pigweed, Palmer plant response rating” value ([18]; 31 g ai/ha Postemergence)?
The value was 60.

And the “Pigweed, Palmer plant response rating” value ([18]; 125 g ai/ha Postemergence)?
Its value is 90.

And the “Ragweed plant response rating” value ([19]; 31 g ai/ha Postemergence)?
Its value is 80.

And the “Ragweed plant response rating” value ([19]; 125 g ai/ha Postemergence)?
Its value is 90.

And the “Ryegrass, Italian plant response rating” value ([20]; 31 g ai/ha Postemergence)?
Its value is 50.

And the “Ryegrass, Italian plant response rating” value ([20]; 125 g ai/ha Postemergence)?
Its value is 70.

And the “Soybean plant response rating” value (soybean (Glycine max) [21]; 31 g ai/ha Postemergence)?
Its value is 80.

And the “Soybean plant response rating” value (soybean (Glycine max) [21]; 125 g ai/ha Postemergence)?
The value was 100.

And the “Wheat plant response rating” value ([22]; 31 g ai/ha Postemergence)?
The value was 80.

What about the “Wheat plant response rating” value ([22]; 125 g ai/ha Postemergence) of the same compound?
Its value is 90.

What about the “Galium plant response rating” value ([23]; 31 g ai/ha Postemergence) of the same compound?
The value was 100.

And the “Galium plant response rating” value ([23]; 125 g ai/ha Postemergence)?
Its value is 100.

What about the “Horseweed plant response rating” value ([24]; 31 g ai/ha Postemergence) of the same compound?
Its value is 80.

What about the “Horseweed plant response rating” value ([24]; 125 g ai/ha Postemergence) of the same compound?
The value was 100.

What about the “Plant response rating, Barnyardgrass” value [25] of the same compound?
Its value is 90.

What about the “Plant response rating, Ducksalad” value [26] of the same compound?
Its value is 90.

What about the “Plant response rating, Rice” value (rice (Oryza sativa)) of the same compound?
The value was 35.

What about the “Plant response rating, Sedge, Umbrella” value [27] of the same compound?
Its value is 95.
